Data on three compounds can be found in patent publication US20090111823A1, “AMINOPYRIDINE DERIVATIVES AS MODULATORS OF MGLUR5” (AstraZeneca AB, priority 2007, published 2009).

Where only a bound is given, the exact number is not on record here.

The nature of data set [1]: Determination of brain to plasma ratio in rat. The format is in vivo. To be noted: female Sprague Dawley rats, read-out: Brain/Plasma Ratio of compound in Rat. Here is the method: Brain to plasma ratios are estimated in female Sprague Dawley rats. The compound is dissolved in water or another appropriate vehicle. For determination of brain to plasma ratio the compound is administrated as a subcutaneous, or an intravenous bolus injection, or an intravenous infusion, or an oral administration. At a predetermined time point after the administration a blood sample is taken with cardiac puncture. The rat is terminated by cutting the heart open, and the brain is immediately retained. The blood samples are collected in heparinized tubes and centrifuged within 30 minutes, in order to separate the plasma from the blood cells. The plasma is transferred to 96-well plates and stored at −20° C. until analysis. The brains are divided in half, and each half is placed in a pre-tarred tube and stored at −20° C. until analysis. Prior to the analysis, the brain samples are thawed and 3 mL/g brain tissue of distilled water is added to the tubes. The brain samples are sonicated in an ice bath until the samples are homogenized. Both brain and plasma samples are precipitated with acetonitrile. After centrifugation, the supernatant is diluted with 0.2% formic acid. Analysis is performed on a short reversed-phase HPLC column with rapid gradient elution and MSMS detection using a triple quadrupole instrument with electrospray ionisation and Selected Reaction Monitoring (SRM) acquisition. Liquid-liquid extraction may be used as an alternative sample clean-tip. The samples are extracted, by shaking, to an organic solvent after addition of a suitable buffer. An aliquot of the organic layer is transferred to a new vial and evaporated to dryness under a stream of nitrogen. After reconstitution of the residuals the samples are ready for injection onto the HPLC column.

In a further data set the target is T1, human mGluR5d (Homo sapiens, UniProt P41594).
T1 construct: expressed in transfected cells; The separate IP3 assay uses GHEK cells stably expressing human mGluR5d
T1 sequence (P41594 21-942 isoform P41594-3 limits assumed): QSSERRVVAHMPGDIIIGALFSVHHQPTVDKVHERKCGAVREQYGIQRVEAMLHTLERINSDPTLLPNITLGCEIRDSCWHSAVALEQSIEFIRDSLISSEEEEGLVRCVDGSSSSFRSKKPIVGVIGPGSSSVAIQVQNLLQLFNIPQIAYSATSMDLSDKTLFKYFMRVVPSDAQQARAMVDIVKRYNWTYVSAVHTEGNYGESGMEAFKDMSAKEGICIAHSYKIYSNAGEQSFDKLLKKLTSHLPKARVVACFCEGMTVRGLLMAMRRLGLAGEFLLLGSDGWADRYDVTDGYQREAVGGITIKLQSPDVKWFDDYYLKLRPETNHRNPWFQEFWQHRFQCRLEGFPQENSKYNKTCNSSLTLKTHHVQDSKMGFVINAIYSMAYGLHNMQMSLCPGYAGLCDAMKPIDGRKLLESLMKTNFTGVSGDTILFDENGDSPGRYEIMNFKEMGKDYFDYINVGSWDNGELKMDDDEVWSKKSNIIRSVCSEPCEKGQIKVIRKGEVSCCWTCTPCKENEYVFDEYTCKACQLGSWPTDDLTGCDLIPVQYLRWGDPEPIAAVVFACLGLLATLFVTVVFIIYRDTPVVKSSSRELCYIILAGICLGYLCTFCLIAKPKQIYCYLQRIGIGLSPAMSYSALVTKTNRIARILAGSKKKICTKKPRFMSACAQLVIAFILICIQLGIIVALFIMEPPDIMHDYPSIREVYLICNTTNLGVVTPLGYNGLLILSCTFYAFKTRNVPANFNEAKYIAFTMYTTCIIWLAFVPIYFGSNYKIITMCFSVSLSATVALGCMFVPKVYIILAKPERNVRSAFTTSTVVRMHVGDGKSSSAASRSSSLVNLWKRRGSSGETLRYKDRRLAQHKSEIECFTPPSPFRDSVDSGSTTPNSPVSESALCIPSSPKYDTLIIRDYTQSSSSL
In words: FLIPR assay, mobilization of intracellular calcium in cells expressing human mGluR5d. To be noted: antagonism, read-out: FLIPR hmGluR5d. The format is cell-based. From the text:
Functional Assessment of mGluR5 Antagonism in Cell Lines Expressing mGluR 5D
The properties of the compounds of the invention can be analyzed using standard assays for pharmacological activity. Examples of glutamate receptor assays are well known in the art as described in for example Aramori et al, Neuron 8:757 (1992), Tanabe et al., Neuron 8:169 (1992), Miller et al., J. Neuroscience 15: 6103 (1995), Balazs, et al., J. Neurochemistry 69:151 (1997). The methodology described in these publications is incorporated herein by reference. Conveniently, the compounds of the invention can be studied by means of an assay (FLIPR) that measures the mobilization of intracellular calcium, [Ca^2+]i in cells expressing mGluR5 or another assay (IP3) that measures inositol phosphate turnover.
Cells expressing human mGluR5d as described in WO97/05252 cultured in a mixture of high glucose DMEM with Glutamax (31966-021)(500 mL), 10% dialyzed fetal bovine serum (Hyclone #SH30079.03)(56 mL), 200 μg/mL Hygromycin B (Invitrogen 45-0430, 50 mg/mL)(2.2 mL), 200 μg/mL Zeocin (invitrogen #R250-01; 100 mg/mL)(1.1 mL) are seeded at a density of 100,000 cells per well on collagen coated clear bottom 96-well plates with black sides and cells were allowed to adhere over night before experiments. All assays are done in a buffer containing 146 mM NaCl, 5 mM KCl, 1 mM MgCl2, 1 mM CaCl2, 20 mM HEPES, 1 mg/mL glucose and 1 mg/mL BSA Fraction IV (pH 7.4). Cell cultures in the 96-well plates are loaded for 60 minutes in the above mentioned buffer containing 6 μM of the acetoxymethyl ester form of the fluorescent calcium indicator fluo-3 (Molecular Probes, Eugene, Oreg.) in 0.025% pluronic acid (a proprietary, non-ionic surfactant polyol—CAS Number 9003-11-6). […] The fluorescence signal is sampled 50 times at 1-second intervals followed by 3 samples at 5-second intervals immediately after each of the two additions. Responses are measured as the difference between the peak heights of the response to agonist, less the background fluorescence within the sample period. […]

Regarding `Cn1c(-c2ccc(N)nc2)nnc1N1CCCC1c1cc(-c2ccccc2)on1` (stereo in doubt) [Example 5.3, 5-{4-Methyl-5-[(2R)-2-(5-phenylisoxazole-3-yl)pyrrolidin-1-yl]-4H-1,2,4-triazol-3-yl}pyridin-2-amine], in data set [1], the Kp is below 0.01. Moreover, at human mGluR5d, the IC50 is 34 nM.
Take `CN(C)c1ccc(-c2nnc(N3CCC[C@@H]3c3cc(-c4cccc(Cl)c4)on3)n2C)cn1` [Example 5.1, 5-(5-{(2R)-2-[5-(3-Chlorophenyl)isoxazol-3-yl]pyrrolidin-1-yl}-4-methyl-4H-1,2,4-triazol-3-yl)-N,N-dimethylpyridin-2-amine]: the Kp in data set [1] was found to be 0.285. On human mGluR5d, the IC50 turned out to be 39 nM.
With `Cn1c(-c2ccc(N)nc2)nnc1N1CCC[C@@H]1c1cc(-c2cccc(Cl)c2)on1` [Example 5.2, 5-(5-{(2R)-2-[5-(3-Chlorophenyl)isoxazol-3-yl]pyrrolidin-1-yl}-4-methyl-4H-1,2,4-triazol-3-yl)pyridin-2-amine], the Kp in data set [1] was 0.085. In addition, the IC50 on human mGluR5d is below 3 nM.
